Laboratory results from article PMC3271735 (Journal of the American Chemical Society, 2012).

Legend:
Assay type in all cases: biochemical
Details in all cases: 100 μM inhibitor
[1] = target: T1, Sirt1 (Homo sapiens, UniProt Q96EB6); assay: Sirt1 inhibition assay
T1 sequence (Q96EB6 1-747): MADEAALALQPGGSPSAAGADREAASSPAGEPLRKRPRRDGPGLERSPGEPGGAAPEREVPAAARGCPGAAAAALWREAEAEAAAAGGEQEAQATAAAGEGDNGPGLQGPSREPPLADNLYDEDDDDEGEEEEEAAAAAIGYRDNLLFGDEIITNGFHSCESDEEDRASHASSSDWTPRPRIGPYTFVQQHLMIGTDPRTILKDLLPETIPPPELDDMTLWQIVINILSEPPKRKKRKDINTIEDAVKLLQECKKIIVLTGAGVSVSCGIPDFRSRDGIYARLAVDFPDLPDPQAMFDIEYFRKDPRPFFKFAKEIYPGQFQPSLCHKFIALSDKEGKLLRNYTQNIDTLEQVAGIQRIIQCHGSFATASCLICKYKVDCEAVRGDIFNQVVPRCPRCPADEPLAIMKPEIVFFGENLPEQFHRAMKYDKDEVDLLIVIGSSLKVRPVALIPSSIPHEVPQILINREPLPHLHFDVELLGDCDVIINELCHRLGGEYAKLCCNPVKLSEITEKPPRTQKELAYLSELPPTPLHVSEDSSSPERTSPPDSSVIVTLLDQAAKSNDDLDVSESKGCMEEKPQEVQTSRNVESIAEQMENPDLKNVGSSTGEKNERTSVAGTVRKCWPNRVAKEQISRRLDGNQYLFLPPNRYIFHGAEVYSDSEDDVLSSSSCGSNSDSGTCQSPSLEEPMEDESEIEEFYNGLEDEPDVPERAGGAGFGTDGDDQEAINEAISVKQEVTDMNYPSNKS

[2] = target: T2, Sirt3 (Homo sapiens, UniProt Q9NTG7); assay: Sirt3 inhibition assay
T2 sequence (Q9NTG7 1-399): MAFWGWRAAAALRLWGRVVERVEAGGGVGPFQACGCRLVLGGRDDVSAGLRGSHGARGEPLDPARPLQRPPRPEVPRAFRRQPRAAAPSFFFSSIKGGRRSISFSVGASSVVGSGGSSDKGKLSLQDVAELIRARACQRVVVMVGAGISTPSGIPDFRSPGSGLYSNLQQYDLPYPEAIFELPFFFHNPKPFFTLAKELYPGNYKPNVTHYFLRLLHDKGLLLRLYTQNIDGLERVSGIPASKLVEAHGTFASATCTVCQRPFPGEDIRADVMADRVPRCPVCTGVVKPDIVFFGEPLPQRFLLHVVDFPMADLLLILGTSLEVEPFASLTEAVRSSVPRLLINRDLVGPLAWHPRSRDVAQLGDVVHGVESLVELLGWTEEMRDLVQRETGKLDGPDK

[3] = target: T3, Sirt2 (Homo sapiens, UniProt Q8IXJ6); assay: Sirt2 inhibition assay
T3 sequence (Q8IXJ6 1-389): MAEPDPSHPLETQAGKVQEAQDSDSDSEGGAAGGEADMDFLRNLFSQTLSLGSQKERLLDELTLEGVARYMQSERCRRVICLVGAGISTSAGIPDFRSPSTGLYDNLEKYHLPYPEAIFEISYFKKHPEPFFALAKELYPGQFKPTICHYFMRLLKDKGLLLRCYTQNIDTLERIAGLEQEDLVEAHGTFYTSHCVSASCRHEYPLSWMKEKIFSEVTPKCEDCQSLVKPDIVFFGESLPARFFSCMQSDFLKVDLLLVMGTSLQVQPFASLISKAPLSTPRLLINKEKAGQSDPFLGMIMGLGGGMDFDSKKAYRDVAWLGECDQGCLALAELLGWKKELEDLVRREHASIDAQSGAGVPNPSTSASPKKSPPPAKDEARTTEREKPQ

inhibition of Sirt1 at 100 μM [1]: does not inhibit | inhibition of Sirt3 at 100 μM [2]: does not inhibit | inhibition of Sirt2 at 100 μM [3]: does not inhibit
Compound: C[C@H](NC(=O)[C@H](CCCCN)NC(=O)CNC(=O)CNC(=O)[C@@H](NC(=O)[C@H](CO)NC(=O)[C@H](CCCCNC(=S)CCC(=O)O)NC(=O)[C@H](CCCNC(=N)N)NC(=O)[C@H](C)NC(=O)[C@@H](NC(=O)[C@H](CCC(N)=O)NC(=O)[C@@H](N)CCCCN)[C@@H](C)O)[C@@H](C)O)C(=O)O [H3K9TSu, KQTAR(TSuK)STGGKA]
